Consider one compound from PMC9601927 (Foods, 2022).

Entries after “also recorded” stand apart in the source; their conditions may differ.

Holding throughout (type): cell-based
One data set has as its system GLUT2. In words: Immunofluorescence staining of GLUT2 in Caco-2 cells. The following applies: ANC 2.3 × 10^−4 mg/mL or FA-g-CS 9 × 10^−5 mg/mL, 48 h. Here is the method:
(§1) Immunofluorescence staining was carried out to further validate the effect of FA-g-CS/ANC on the expression of sGLT1 and GLUT2. In short, Caco-2 cells were transfected with NC siRNA (negative control), GLUT2-siRNA-2, and sGLT1-siRNA-3; then, they were seeded onto a 4-well slide and chamber (Watson, Kobe, Japan). Subsequently, cells were incubated with 0.09 µg/mL FA-g-CS, 0.23 µg/mL ANC, or their combination at 37 °C for 48 h. Then, they were fixed with 4% paraformaldehyde for 10 min and soaked with 0.5% Triton X-100 in PBS for 15 min. In this study, goat serum was used to avoid nonspecific binding at room temperature. After 30 min of treatments, the cells were incubated with the primary antibody ([…], Santa Cruz Biotechnology, with 1:100 dilutions) at 4 °C overnight, followed by incubation with the secondary antibody (goat anti-mouse IgG1-HRP, Santa Cruz Biotechnology, Shanghai, China, with 1:100 dilutions) for 1 h at 20–37 °C. Nuclear staining was performed with DAPI, and the images were captured with a fluorescence microscope (BX53, Olympus, Tokyo, Japan).

For a further data set, the system named is sGLT1. Description: Immunofluorescence staining of sGLT1 in Caco-2 cells. The following applies: ANC 2.3 × 10^−4 mg/mL or FA-g-CS 9 × 10^−5 mg/mL, 48 h. The method, then: as §1
A further data set has as its system Caco-2 cells. The following applies: 2.3 × 10^−4 mg/mL ANC, 48 h. Here is the method: Due to cell membrane damage, the intracellular LDH was released into the culture medium. The LDH level was used as an indicator of irreversible cell death. The method used here was based on the spectrophotometric determination at 490 nm of NADH disappearance.
Upon exposure to different concentrations of ANC, FA-g-CS, or their combinations, the culture medium was aspirated and centrifuged at 400× g for 5 min in tubes with a porous matrix to acquire a cell-free supernatant. A measure of 120 microliters of media was mixed with 60 μL of reagent in a 96-well plate, and the absorbance was recorded with PerkinElmer EnVision. The cytotoxicity of these substances was reflected using the following Equation (2):(2) LDH activity(mU/mL)=ODsample−ODblank/ODstandard−ODblank of standard×1000 mU/mL where ODsample, ODblank, ODstandard, and ODblank represent the measurements of the sample, the blank, the standard, and the blank of standard, respectively.

Take `OC[C@H]1O[C@@H](Oc2cc3c(O)cc(O)cc3[o+]c2-c2ccc(O)c(O)c2)[C@H](O)[C@@H](O)[C@@H]1O` [ANC, Cyanidin-3-glucoside]: the “protein level of GLUT2 (immunofluorescence) compared with the control cells” value in the data set with GLUT2 is listed as “increased”. Further, the “protein level of sGLT1 (immunofluorescence) compared with the control cells” value in the data set on sGLT1 is on record as “increased”. Also, the “cell cytotoxicity (LDH assay)” value in the data set with Caco-2 cells was “negligible increase; also recorded: not toxic”.
